Values joined by “and” are separate entries in the source; they are usually repeats but may differ in a detail not shown here. Equal entries are not always repeated.
System: 422866-222-R5-J1-PDC spheroid viability
Assay: Anticancer human tumor 422866-222-R5-J1-PDC patient-derived pancreatic adenocarcinoma cell line growth inhibition [CLK]
Conditions: spheroids with HUVEC and MSC; for viability, T/C: stronger effect = lower value
Text: A high-throughput screen of multi-cell type tumor spheroids was designed to identify active combinations of […] and targeted small molecules. Complex spheroids include a stromal component modeled by human endothelial cells (HUVEC) and fibroblasts modeled by human mesenchymal stem cells (MSCs). The concentration ranges selected for each drug and investigational agent were based upon clinically achievable concentrations if the clinical Cmax of the agent was known.
Compounds. The drugs and investigational agents: cirtuvivint (SM08502; NSC835563), CC-671 (NSC850746), vemurafenib (NSC761431), tapotoclax (NSC804041), sotorasib (NSC818433), adagrasib (NSC831453), MRTX-1133 (NSC836407), BAY2416964 (NSC825713), copanlisib (NSC816437), inavolisib (NSC800729), abemaciclib (NSC768073), osimertinib (NSC779217), entinostat (NSC756642), eltanexor (KPT-8602, NSC794443), venetoclax (NSC766270), ceralasertib (NSC777638), bortezomib (NSC756655), olaparib (NSC753686), talazoparib (NSC767125), alisertib (NSC759677), peposertib (NSC802822), gemcitabine (NSC613327), 5-fluorouracil (NSC19893), SN-38 (NSC673596), oxaliplatin (NSC266046), paclitaxel (NSC125973), and doxorubicin (NSC123127), were obtained from the National Cancer Institute (NCI) Developmental Therapeutics Program Chemical Repository. The FDA-approved anticancer drug set is available from the Developmental Therapeutics Program at https://dtp.cancer.gov/organization/dscb/obtaining/available plates.htm. […] The stock solutions were prepared in dimethyl sulfoxide (DMSO, Sigma-Aldrich, St. Louis, MO, cat. D2650), except for the platinum complexes which were prepared in saline (Quality Biological, Gaithersburg, MD, cat. 114-055-101), at 800-fold the tested concentration and stored at -70 degrees C prior to their use. All drugs and investigational agents were tested over a range starting from a high concentration at or near the clinical Cmax and decreasing in half-log increments. If the clinical Cmax for an agent had not been determined, the highest concentration tested was 10 microM.
Cell Culture. All cells were maintained in an incubator at 37 degrees C and 5% CO2 with 95% humidity. The PDC lines were cultured according to standard operating procedures established by the NCI PDMR. Briefly, all PDCs were thawed and cultured in Matrigel-coated flasks prepared with a working solution of 1X Ham's F-12 nutrient mix, without supplementation (Invitrogen, Waltham, MA, cat. 11765054), 100 U/mL penicillin-streptomycin (Invitrogen, cat. 15140122), and 2.5% Matrigel (Corning Inc., Corning, NY, cat. 354248) for the first three passages. The 947758-054-R-J2-PDC line was cultured in 6B/Colon 1A media, which includes advanced DMEM/F-12 (Thermo Fisher Scientific, cat. 12634028), 10 mM HEPES (Thermo Fisher Scientific, cat. 15630080), 1X GlutaMAX supplement (Thermo Fisher Scientific, cat. 35050061), 0.1 mg/mL primocin (InvivoGen, cat. ant-pm-2), 10% defined fetal bovine serum, heat inactivated (HyClone Laboratories Inc., cat. SH30070.03HI), 1.25 mM N-Acetyl-L-cysteine (Sigma-Aldrich, cat. A9165), 10 mM nicotinamide (Sigma-Aldrich, cat. N0636), 1X B-27 supplement (Thermo Fisher Scientific, cat. 17504044), 1X N-2 supplement (Thermo Fisher Scientific, cat. 17502048), and 10 microM Y-27632 dihydrochloride (Tocris Bioscience, cat. 1254). The 876862-298-R-J1-PDC was cultured in 6E media, which includes all 6B/Colon 1A media components plus 50% L-WRN conditioned media (ATCC, cat. CRL-3276), 50 ng/mL recombinant human EGF recombinant protein (hEGF; Thermo Fisher Scientific, cat. PHG0311), 10 ng/mL recombinant human fibroblast growth factor 10 (hGFG-10; PeproTech, cat. 100-26), 1 ng/mL recombinant human fibroblast growth factor 2 (hFGF-2; PeproTech, cat. 100-18B), and 1 µM prostaglandin E2 (PGE2; Tocris, cat. 2296). The 227483-062-R1-J1-PDC line was cultured in Panc media, containing all 6E components except hFGF-2, with the addition of 500 nM SB-431542 (Selleckchem, cat. S1067) and 10 nM gastrin (Tocris, cat. 3006). […]

[1] = curve of first compound, second compound 0.0316 µM
[2] = curve of first compound, second compound 0.1 µM
[3] = curve of first compound, second compound 0.316 µM
[4] = curve of first compound, second compound 1 µM
[5] = curve of first compound, second compound 3.16 µM
[6] = curve of first compound, second compound 10 µM
[7] = second compound 0.0316 µM, first compound 0.0316 µM
[8] = second compound 0.0316 µM, first compound 0.1 µM
[9] = second compound 0.0316 µM, first compound 0.316 µM
[10] = second compound 0.0316 µM, first compound 1 µM
[11] = second compound 0.1 µM, first compound 0.0316 µM
[12] = second compound 0.1 µM, first compound 0.1 µM
[13] = second compound 0.1 µM, first compound 0.316 µM
[14] = second compound 0.1 µM, first compound 1 µM
[15] = second compound 0.316 µM, first compound 0.0316 µM
[16] = second compound 0.316 µM, first compound 0.1 µM
[17] = second compound 0.316 µM, first compound 0.316 µM
[18] = second compound 0.316 µM, first compound 1 µM
[19] = second compound 1 µM, first compound 0.0316 µM
[20] = second compound 1 µM, first compound 0.1 µM
[21] = second compound 1 µM, first compound 0.316 µM
[22] = second compound 1 µM, first compound 1 µM
[23] = second compound 3.16 µM, first compound 0.0316 µM
[24] = second compound 3.16 µM, first compound 0.1 µM
[25] = second compound 3.16 µM, first compound 0.316 µM
[26] = second compound 3.16 µM, first compound 1 µM
[27] = second compound 10 µM, first compound 0.0316 µM
[28] = second compound 10 µM, first compound 0.1 µM
[29] = second compound 10 µM, first compound 0.316 µM
[30] = second compound 10 µM, first compound 1 µM
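Further: spheroids exposed to agents for seven days before readout.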

Work on `CCc1c2c(nc3ccc(O)cc13)-c1cc3c(c(=O)n1C2)COC(=O)[C@]3(O)CC` + CN1CCN(c2cc(C(=O)Nc3cc4cc(-c5cnn(C)c5)ccc4cn3)ccn2)CC1 yielded an IC50 [1] of less than 3.16 nM, an IC50 [2] of 4.48 nM and an IC50 [3] of less than 3.16 nM. For the same compound, the IC50 [4] was less than 3.16 nM, the IC50 [5] was less than 3.16 nM and the IC50 [6] was less than 3.16 nM. The viability, T/C (second compound 0.0316 µM, first compound 0.00316 µM) was 49.4%, the viability, T/C (second compound 0.0316 µM, first compound 0.01 µM) was 41.2% and the viability, T/C [7] was 37.6%. For the same compound, the viability, T/C [8] was 37.1%, the viability, T/C [9] was 27.9% and the viability, T/C [10] was 20.3%. It also gave a viability, T/C (second compound 0.1 µM, first compound 0.00316 µM) of 54%, a viability, T/C (second compound 0.1 µM, first compound 0.01 µM) of 42.3% and a viability, T/C [11] of 34.8%. For the same compound, the viability, T/C [12] was 40%, the viability, T/C [13] was 24.7% and the viability, T/C [14] was 24.3%. It also gave a viability, T/C (second compound 0.316 µM, first compound 0.00316 µM) of 52.9%, a viability, T/C (second compound 0.316 µM, first compound 0.01 µM) of 44.1% and a viability, T/C [15] of 45.7%. The viability, T/C [16] was 31.9%, the viability, T/C [17] was 24.2% and the viability, T/C [18] was 25.2%. For the same compound, the viability, T/C (second compound 1 µM, first compound 0.00316 µM) was 12.3%, the viability, T/C (second compound 1 µM, first compound 0.01 µM) was 12.7% and the viability, T/C [19] was 12.4%. The viability, T/C [20] was 14.1%, the viability, T/C [21] was 30.5% and the viability, T/C [22] was 24.3%. The viability, T/C (second compound 3.16 µM, first compound 0.00316 µM) was 6.01%, the viability, T/C (second compound 3.16 µM, first compound 0.01 µM) was 8.18% and the viability, T/C [23] was 12.9%. It also gave a viability, T/C [24] of 19%, a viability, T/C [25] of 25.1% and a viability, T/C [26] of 31.6%. For the same compound, the viability, T/C (second compound 10 µM, first compound 0.00316 µM) was 1.14%, the viability, T/C (second compound 10 µM, first compound 0.01 µM) was 0.8% and the viability, T/C [27] was 2.73%. The viability, T/C [28] was 2.68%, the viability, T/C [29] was 4.83% and the viability, T/C [30] was 5.54%.

Work on `C=C(F)C(=O)N1CCN(c2nc(OCC3CCCN3C)nc3c2CCN(c2cccc4cccc(Cl)c24)C3)CC1CC#N` (stereo unspecified) + CNC(=O)c1ccc(Nc2nc(OC3CCCC3)c3c(-c4ccc5nc(C)oc5c4)c[nH]c3n2)c(OC)c1 yielded an IC50 [1] of less than 31.6 nM, an IC50 [2] of less than 31.6 nM and an IC50 [3] of less than 31.6 nM. It also gave an IC50 [4] of less than 31.6 nM, an IC50 [5] of less than 31.6 nM and an IC50 [6] of less than 31.6 nM. For the same compound, the viability, T/C [7] was 39.9%, the viability, T/C [8] was 29.7% and the viability, T/C [9] was 23.2%. For the same compound, the viability, T/C [10] was 25.3%, the viability, T/C (second compound 0.0316 µM, first compound 3.16 µM) was 15.7% and the viability, T/C (second compound 0.0316 µM, first compound 10 µM) was 0.15%. It also gave a viability, T/C [11] of 38.7%, a viability, T/C [12] of 23.9% and a viability, T/C [13] of 23.3%. It also gave a viability, T/C [14] of 20.6%, a viability, T/C (second compound 0.1 µM, first compound 3.16 µM) of 15% and a viability, T/C (second compound 0.1 µM, first compound 10 µM) of 0.14%. For the same compound, the viability, T/C [15] was 29.8%, the viability, T/C [16] was 23.6% and the viability, T/C [17] was 25.1%. The viability, T/C [18] was 23.1%, the viability, T/C (second compound 0.316 µM, first compound 3.16 µM) was 14.8% and the viability, T/C (second compound 0.316 µM, first compound 10 µM) was 0.14%. It also gave a viability, T/C [19] of 30.3%, a viability, T/C [20] of 24.8% and a viability, T/C [21] of 22.4%. It also gave a viability, T/C [22] of 23.3%, a viability, T/C (second compound 1 µM, first compound 3.16 µM) of 18.2% and a viability, T/C (second compound 1 µM, first compound 10 µM) of 4.65%. For the same compound, the viability, T/C [23] was 28.4%, the viability, T/C [24] was 29.2% and the viability, T/C [25] was 24.5%. For the same compound, the viability, T/C [26] was 25%, the viability, T/C (second compound 3.16 µM, first compound 3.16 µM) was 20.4% and the viability, T/C (second compound 3.16 µM, first compound 10 µM) was 0.15%. It also gave a viability, T/C [27] of 30%, a viability, T/C [28] of 28.4% and a viability, T/C [29] of 28.1%. It also gave a viability, T/C [30] of 24.6%, a viability, T/C (second compound 10 µM, first compound 3.16 µM) of 18.5% and a viability, T/C (second compound 10 µM, first compound 10 µM) of 0.17%.

With `COc1c(OCCCN2CCOCC2)ccc2c3n(c(=NC(=O)c4cnc(N)nc4)nc12)CCN3` the viability, T/C (compound 0.00316 µM) was 78.6% and 87.6%, the viability, T/C (compound 0.01 µM) was 57.4% and 58.9% and the viability, T/C (compound 0.0316 µM) was 37.6% and 32.8%. The viability, T/C (compound 0.1 µM) was 33.2% and 29.1%, the viability, T/C (compound 0.316 µM) was 29.7% and 26% and the viability, T/C (compound 1 µM) was 32.4% and 33.2%. The IC50 (curve of compound) was 15.4 nM and 14.8 nM.

Reference: PubChem BioAssay AID2060603 (Molecular Pharmacology Branch, DTP, NCI, 2025)
